Source: patent US20040034219A1, “Benzothiophene derivative compounds process of preparation and use thereof” (priority 2000, published 2004)
Counter-ions that a name gives are not always drawn.

How the values were obtained:
[1] = biological target: T1, serotonin transporter (Rattus norvegicus, UniProt P31652); test: Tests of fixing to the serotonin transporter (5-HT), 3H-paroxetine displacement; format: binding; conditions: membranes of rat cerebral cortex, 3H-paroxetine 0.1 nM, 60 minutes at 22° C.
T1 construct: a fraction of semi-purified membranes of the cerebral cortex of rat; from tissue; host or cells: rat cerebral cortex membranes
T1 sequence (P31652 whole entry): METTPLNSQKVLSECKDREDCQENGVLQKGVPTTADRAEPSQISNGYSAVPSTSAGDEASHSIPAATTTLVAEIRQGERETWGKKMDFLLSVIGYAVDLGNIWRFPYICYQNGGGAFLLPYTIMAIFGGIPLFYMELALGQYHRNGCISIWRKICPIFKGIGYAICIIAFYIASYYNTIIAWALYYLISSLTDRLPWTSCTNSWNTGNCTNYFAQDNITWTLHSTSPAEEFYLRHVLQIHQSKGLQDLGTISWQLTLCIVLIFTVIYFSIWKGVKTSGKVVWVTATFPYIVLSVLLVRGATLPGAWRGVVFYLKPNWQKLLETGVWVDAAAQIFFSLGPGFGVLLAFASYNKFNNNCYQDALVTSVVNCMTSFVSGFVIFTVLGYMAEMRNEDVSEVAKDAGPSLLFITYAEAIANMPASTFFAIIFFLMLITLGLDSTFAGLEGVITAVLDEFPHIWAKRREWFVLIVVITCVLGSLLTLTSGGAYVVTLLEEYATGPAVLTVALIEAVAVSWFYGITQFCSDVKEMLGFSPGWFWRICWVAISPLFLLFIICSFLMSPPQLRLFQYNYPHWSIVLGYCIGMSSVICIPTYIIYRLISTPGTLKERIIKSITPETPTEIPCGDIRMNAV
Method: Tests of Fixing to the Serotonin Transporter (5-HT)
The biological material used was a fraction of semi-purified membranes of the cerebral cortex of rat, obtained using the method described above.
The membrane fraction was resuspended in Tris-HCl 50 mM, pH 7.4 at 40° C., which contained NaCl 120 mM and KCl 5 mM, and was incubated with ^3H-paroxetine 0.1 nM and different concentrations of fluoxetine as displacing agent. At the end of the period of incubation of 60 minutes at 22° C. the membrane fraction was separated by rapid filtration and the radioactivity of the combined fraction quantified by means of liquid scintillation.
(§1) The results are expressed as the Ki of the serotonin transporter and the Ki of the 5-HT1A receptor.

[2] = biological target: T2, 5-HT1A receptors (Rattus norvegicus, UniProt P19327); test: Tests for fixing to serotonin 5HT1A receptors, 3H-DPAT displacement; format: binding; conditions: membranes of rat cerebral cortex, 3H-DPAT 1 nM, 15 minutes at 37° C.
T2 construct: fraction of membranes isolated from the cerebral cortex of rats; from tissue; host or cells: rat cerebral (frontal) cortex membranes
T2 sequence (P19327 1-422): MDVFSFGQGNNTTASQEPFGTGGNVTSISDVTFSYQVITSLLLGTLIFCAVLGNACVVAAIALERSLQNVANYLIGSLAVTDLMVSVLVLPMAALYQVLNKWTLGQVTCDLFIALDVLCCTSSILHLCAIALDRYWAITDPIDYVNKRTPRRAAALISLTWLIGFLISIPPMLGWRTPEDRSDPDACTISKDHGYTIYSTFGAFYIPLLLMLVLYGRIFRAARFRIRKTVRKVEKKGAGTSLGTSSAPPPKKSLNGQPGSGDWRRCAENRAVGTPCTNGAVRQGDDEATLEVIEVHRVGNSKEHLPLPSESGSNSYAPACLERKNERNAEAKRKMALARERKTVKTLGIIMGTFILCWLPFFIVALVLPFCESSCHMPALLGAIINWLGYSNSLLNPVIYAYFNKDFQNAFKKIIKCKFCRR
Method: Tests for Fixing to Serotonin 5HT1A Receptors
The technique described by Hoyer and collaborators (Eur. J. Pharmacol. 118:13-23.1985) was used to determine the affinity of the products for the 5-HT1A receptors. The studies were carried out with the fraction of membranes isolated from the cerebral cortex of rats. The agonist ^3H-Dipropylaminotetraline (DPAT) was used as specific ligand, while non-radioactive DPAT was used as displacing ligand.
In order to isolate the fraction of membranes, the frontal cortex of the rat was dissected and homogenised in Tris-HCl 50 mM, pH 7.7 at 4° C. The resulting homogenate was centrifuged at 25000 rpm for 15 minutes at 4° C. and the sediment resuspended in Tris-HCl containing CaCl2 4 mM. For the fixing test the suspension of membranes was incubated with ^3H-DPAT (1 nM) and different concentrations of the cold displacing agent. Once the incubation period of 15 minutes at 37° C. had elapsed, the membrane fraction was separated by means of rapid filtration and the radioactivity of the combined fraction quantified by means of liquid scintillation.
as §1

SMILES	melting point	Ki [1]	Ki [2]
Cl.Cl.O=C(CCN1CCN(c2cccc3cccnc23)CC1)c1csc2ccccc12	150 to 152 °C		
O=C(CCN1CCN(c2cccc3[nH]ccc23)CC1)c1csc2ccccc12 [Example 10, 1-(benzo[b]thiophen-3-yl)-3-[4-(indol-4-yl)piperazin-1-yl]propan-1-one]	83 to 85 °C		
O=C(CCN1CCN(c2ccc3ccccc3n2)CC1)c1csc2ccccc12 [Example 14, 1-(benzo[b]thiophen-3-yl)-3-[4-(quinol-2-yl)piperazin-1-yl]propan-1-one]	92 to 96 °C		
O=C(CCN1CCN(c2ccnc3ccccc23)CC1)c1csc2ccccc12 [Example 15, 1-(benzo[b]thiophen-3-yl) -3-[4-(quinol-4-yl)piperazin-1-yl]propan-1-one]	134 to 136 °C		
O=C(CCN1CCN(c2cnc3ccccc3c2)CC1)c1csc2ccccc12 [Example 16, 1-(benzo [b]thiophen-3-yl) -3-[4-(quinol-3-yl)piperazin-1-yl]propan-1-one]	112 to 114 °C		
O=C(CCN1CCN(c2cccc3c2OCCO3)CC1)c1csc2ccc([N+](=O)[O-])cc12 [Example 21, 1-(5-nitrobenzo[b]thiophen-3-yl)-3-[4-(2,3-dihydro-1,4-benzodioxyn-5-yl)piperazin-1-yl]propan-1-one]		15.9 nM	3.2 nM
OC(CCN1CCN(c2cccc3cccnc23)CC1)c1csc2ccc(F)cc12 (stereo not drawn) [Example 27, 1-(5-fluorobenzo[b]thiophen-3-yl)-3-[4-(quinol-8-yl)piperazin-1-yl]propan-1-ol]	89 to 91 °C	7.5 nM	2.7 nM
OC(CCN1CCN(c2cccc3c2OCCO3)CC1)c1csc2ccc(F)cc12 (stereo not drawn) [Example 28, 1-(5-fluorobenzo[b]thiophen-3-yl)-3-[4-(2,3-dihydro-1,4-benzodioxyn-5-yl)piperazin-1-yl]propan-1-ol]	147 to 150 °C	14.9 nM	6 nM
OC(CCN1CCN(c2cccc3[nH]ccc23)CC1)c1csc2ccc(F)cc12 (stereo not drawn) [Example 29, 1-(5-fluorobenzo[b]thiophen-3-yl)-3-[4-(indol-4-yl)piperazina-1-yl]propan-1-ol]	170 to 173 °C	7.3 nM	5.9 nM
Cc1ccc2cccc(N3CCN(CCC(O)c4csc5ccc(F)cc45)CC3)c2n1 (stereo not drawn) [Example 30, 1-(5-fluorobenzo[b]thiophen-3-yl)-3-[4-(quinaldin-8-yl)piperazin-1-yl]propan-1-ol]		8.5 nM	2.5 nM
Cl.OC(CCN1CCN(c2cccc3cccnc23)CC1)c1csc2ccccc12 (stereo not drawn) [Example 33, 1-(benzo[b]thiophen-3-yl)-3-[4-(quinol-8-yl)piperazin-1-yl]propan-1-ol hydrochloride]	169 to 170 °C	8.6 nM	1.5 nM
Cl.OC(CCN1CCN(c2cccc3[nH]ccc23)CC1)c1csc2ccccc12 (stereo not drawn) [Example 35, 1-(benzo[b]thiophen-3-yl)-3-[4-(indol-4-yl)piperazin-1-yl]propan-1-ol hydrochloride]	> 300 °C	4.1 nM	5.5 nM
Cc1ccc2cccc(N3CCN(CCC(O)c4csc5ccccc45)CC3)c2n1 (stereo not drawn) [Example 36, 1-(benzo[b]thiophen-3-yl)-3-[4-(quinaldin-8-yl)piperazin-1-yl]propan-1-ol hydrochloride]		9.9 nM	10.2 nM
OC(CCN1CCN(c2cccc3ncccc23)CC1)c1csc2ccccc12 (stereo not drawn) [Example 37, 1-(benzo[b]thiophen-3-yl)-3-[4-(quinol-5-yl)piperazin-1-yl]propan-1-ol]	127 to 129 °C	12.7 nM	26.1 nM
O=[N+]([O-])c1ccc2scc(C(O)CCN3CCN(c4cccc5c4OCCO5)CC3)c2c1 (stereo not drawn) [Example 39, 1-(5-nitrobenzo[b]thiophen-3-yl)-3-[14-(2,3-dihydro-1,4-benzodioxyn-5-yl)piperazin-1-yl]propan-1-ol]		6.9 nM	14 nM
OC(CCN1CCN(c2ccc3ccccc3n2)CC1)c1csc2ccccc12 (stereo not drawn) [Example 44, 1-(benzo [b]thiophen-3-yl) -3-[4-(quinol-2-yl)piperazin-1-yl]propan-1-ol]		6.4 nM	377 nM
OC(CCN1CCN(c2ccnc3ccccc23)CC1)c1csc2ccccc12 (stereo not drawn) [Example 45, 1-(benzo[b]thiophen-3-yl)-3-[4-(quinol-4-yl)piperazin-1-yl]propan-1-ol hydrochloride]		19.4 nM	301 nM
OC(CCN1CCN(c2ccc3ncccc3c2)CC1)c1csc2ccccc12 (stereo not drawn) [Example 47, 1-(benzo[b]thiophen-3-yl)-3-[4-(quinol-6-yl)piperazin-1-yl]propan-1-ol]		2.2 nM	546 nM
Oc1ccc2scc(C(O)CCN3CCN(c4cccc5c4OCCO5)CC3)c2c1 (stereo not drawn) [Example 50, 1-(5-hydroxybenzo[b]thiophen-3-yl)-3-[4-(2,3-dihydro-1,4-benzodioxyn-5-yl)piperazin-1-yl]propan-1-ol]		6.2 nM	18.2 nM
